This note sets out measurements from patent US10577395B2 (priority 2014, dated 2020).

In brackets after ≈: the same amount, converted by molar mass. Read-outs that look alike come from different tables or passages of the source.

Assay [1] deals with Enterococcus faecium (VanA VRE, ATCC BAA-2317). Put plainly: Antimicrobial assay, MIC, VanA E. faecium. The settings on record: for MIC: Enterococcus faecium. The format is cell-based. On the procedure:
(§1) Assays were carried out following the methods of Clinical and Laboratory Standards Institute; Methods for Dilution Antimicrobial Susceptibility Tests for Bacteria That Grow Aerobically; Approved Standard, […].; CLSI document M07-A8; Clinical and Laboratory Standards Institute: Wayne, Pa., 2009.
(§2) This diluted bacterial stock solution was then inoculated into a well of a V-shaped 96-well glass coated microtiter plate, supplemented with serial diluted aliquots of the antibiotic solution DMSO (4 μL), to achieve a total assay volume of 0.1 mL. The plate was then incubated at 37° C. for 18 hours, after which minimal inhibitory concentrations (MICs) were determined by monitoring the cell growth (observed as a pellet) in the wells. The lowest concentration of antibiotic (in μg/mL) capable of eliminating the cell growth in the wells is reported as the MIC.

In assay [2] the test system is vancomycin-resistant Enterococcus faecalis (VanA VRE, BM4166). Put plainly: microbe, parasite or virus in culture. The format is cell-based. As to conditions: for MIC: Enterococcus faecalis, VRE. As to the method: as §1, §2
Assay [3] relates to vancomycin-sensitive Staphylococcus aureus (VSSA strain ATCC 25923). In words: Antimicrobial assay, MIC, vancomycin-sensitive S. aureus. The format is cell-based. As to conditions: ATCC 25923; for MIC: Staphylococcus aureus, ATCC25923, read-out: MIC, sensitive S. aureus. As to the method: as §1, §2
In assay [4] the test system is vancomycin-resistant Enterococcus faecalis (VanB VRE, strain ATCC 51299). In words: microbe, parasite or virus in culture. As to conditions: for MIC: Enterococcus faecalis, read-out: MIC, VanB E. faecalis. The format is cell-based. On the procedure:
as §1, §2

Assay [5] concerns methicillin and oxacillin-resistant Staphylococcus aureus subsp. aureus (MRSA strain ATCC 43300). Put plainly: Antimicrobial assay, MIC, MRSA. The format is cell-based. The settings on record: for MIC: Staphylococcus aureus, read-out: MIC, MRSA S. aureus. As to the method:
as §1, §2

The test system of the next assay is VanA VRE. Put plainly: Antimicrobial assay, MIC for VanA VRE. It is filed as cell-based, E. faecalis and E. faecium. On the procedure: as §1, §2
The mark [6] stands for this setting: read-out: MIC, Van A E. faecium, serum concentration 10%.
Where [7] appears, read: read-out: MIC, Van A E. faecium, serum concentration 25%.
[8] abbreviates: read-out: MIC, Van A E. faecium, serum concentration 100%.
Where [9] appears, read: read-out: MIC, Van A E. faecalis, serum concentration 10%.
Where [10] appears, read: read-out: MIC, Van A E. faecalis, serum concentration 25%.
Where [11] appears, read: read-out: MIC, Van A E. faecalis, serum concentration 100%.
The mark [12] stands for this setting: read-out: MIC, VanA E. faecalis.

For the compound `CN[C@H](CC(C)C)C(=O)N[C@H]1C(=O)N[C@@H](CC(N)=O)C(=O)N[C@H]2C(=N)NC3C(=O)N[C@H](C(=O)N[C@H](C(=O)O)c4cc(O)cc(O)c4-c4cc3ccc4O)[C@H](O)c3ccc(c(Cl)c3)Oc3cc2cc(c3OC2OC(CO)C(O)[C@H](O)[C@@H]2O[C@H]2CC(C)(N)[C@H](O)[C@H](C)O2)Oc2ccc(cc2Cl)[C@H]1O` (stereo partly shown) [Compound 3, [Ψ[C(═NH)NH]Tpg^4]vancomycin], the MIC was 0.5 µg/mL (≈ 0.345 µM) in assay [1] (setting [6]); 4 µg/mL (≈ 2.76 µM) in assay [1] (setting [7]); over 32 µg/mL in assay [1] (setting [8]); 0.5 µg/mL (≈ 0.345 µM) in assay [1] (read-out: MIC, VanA E. faecium); 0.5 µg/mL (≈ 0.345 µM) in assay [2] (setting [9]); 8 µg/mL (≈ 5.52 µM) in assay [2] (setting [10]). Moreover, the figures for the MIC in assay [2] (setting [11]) and in assay [2] (setting [12]) were over 32 µg/mL and 0.5 µg/mL (≈ 0.345 µM), respectively.
In the case of `CN[C@H](CC(C)C)C(=O)N[C@H]1C(=O)N[C@@H](CC(N)=O)C(=O)N[C@H]2CNC3C(=O)N[C@H](C(=O)N[C@H](C(=O)O)c4cc(O)cc(O)c4-c4cc3ccc4O)[C@H](O)c3ccc(c(Cl)c3)Oc3cc2cc(c3OC2OC(CO)C(O)[C@H](O)[C@@H]2O[C@H]2CC(C)(N)[C@H](O)[C@H](C)O2)Oc2ccc(cc2Cl)[C@H]1O` (stereo partly shown) [Compound 16, [Ψ[CH2NH]Tpg^4]vancomycin], the MIC was found to be 31 µg/mL (≈ 21.6 µM) in assay [1] (setting [6]); 62 µg/mL (≈ 43.2 µM) in assay [1] (setting [7]); 125 µg/mL (≈ 87.1 µM) in assay [1] (setting [8]); 31 µg/mL (≈ 21.6 µM) in assay [1] (read-out: MIC, VanA E. faecium); 31 µg/mL (≈ 21.6 µM) in assay [2] (setting [9]); 62 µg/mL (≈ 43.2 µM) in assay [2] (setting [10]). In addition, the results for the MIC in assay [2] (setting [11]) and in assay [2] (setting [12]) were 125 µg/mL (≈ 87.1 µM) and 31 µg/mL (≈ 21.6 µM), respectively.
With `CN[C@H](CC(C)C)C(=O)N[C@H]1C(=O)N[C@@H](CC(N)=O)C(=O)N[C@H]2C(=O)NC3C(=O)N[C@H](C(=O)N[C@H](CO)c4cc(O)cc(O)c4-c4cc3ccc4O)[C@H](O)c3ccc(c(Cl)c3)Oc3cc2cc(c3OC2OC(CO)C(O)[C@H](O)[C@@H]2O[C@H]2CC(C)(N)[C@H](O)[C@H](C)O2)Oc2ccc(cc2Cl)[C@H]1O` (stereo partly shown) [Compound 23, hydroxymethylvancomycin, reference compound], the “MIC, sensitive S. aureus” value in assay [3] was 0.5 µg/mL (≈ 0.348 µM). For the same compound, in assay [1] (ATCC BAA-2317), the “MIC, VanA E. faecium” value is 250 µg/mL (≈ 174 µM). Also, the “MIC, VanA E. faecalis” value in assay [2] (BM 4166) was 250 µg/mL (≈ 174 µM). Further, in assay [4] (ATCC 51299), the “MIC, VanB E. faecalis” value worked out at 8 µg/mL (≈ 5.57 µM). Further, the “MIC, MRSA S. aureus” value in assay [5] (ATCC 43300) was determined as 0.5 µg/mL (≈ 0.348 µM).
As to `CN[C@H](CC(C)C)C(=O)N[C@H]1C(=O)N[C@@H](CC(N)=O)C(=O)N[C@H]2C(=S)NC3C(=O)N[C@H](C(=O)N[C@H](CO)c4cc(O)cc(O)c4-c4cc3ccc4O)[C@H](O)c3ccc(c(Cl)c3)Oc3cc2cc(c3OC2OC(CO)C(O)[C@H](O)[C@@H]2O[C@H]2CC(C)(N)[C@H](O)[C@H](C)O2)Oc2ccc(cc2Cl)[C@H]1O` (stereo partly shown) [Compound 24], the MIC was over 32 µg/mL in assay [3]; over 32 µg/mL in assay [1] (read-out: MIC, VanA E. faecium); over 32 µg/mL in assay [2] (setting [12]); over 32 µg/mL in assay [4]; over 32 µg/mL in assay [5].
Consider `CN[C@H](CC(C)C)C(=O)N[C@H]1C(=O)N[C@@H](CC(N)=O)C(=O)N[C@H]2C(=N)NC3C(=O)N[C@H](C(=O)N[C@H](CO)c4cc(O)cc(O)c4-c4cc3ccc4O)[C@H](O)c3ccc(c(Cl)c3)Oc3cc2cc(c3OC2OC(CO)C(O)[C@H](O)[C@@H]2O[C@H]2CC(C)(N)[C@H](O)[C@H](C)O2)Oc2ccc(cc2Cl)[C@H]1O` (stereo partly shown) [Compound 25], for which the MIC in assay [1] (read-out: MIC, VanA E. faecium) turned out to be 2 µg/mL (≈ 1.39 µM); in assay [2] (setting [12]), 2 µg/mL (≈ 1.39 µM).
On to `CN[C@H](CC(C)C)C(=O)N[C@H]1C(=O)N[C@@H](CC(N)=O)C(=O)N[C@H]2C(=O)NC3C(=O)N[C@H](C(=O)N[C@H](CO)c4cc(O)cc(O)c4-c4cc3ccc4O)[C@H](O)c3ccc(c(Cl)c3)Oc3cc2cc(c3OC2OC(CO)C(O)[C@H](O)[C@@H]2O[C@H]2CC(C)(NCc3ccc(-c4ccc(Cl)cc4)cc3)[C@H](O)[C@H](C)O2)Oc2ccc(cc2Cl)[C@H]1O` (stereo partly shown) [Compound 26], for which the MIC in assay [3] was 0.03 µg/mL (≈ 0.0183 µM); in assay [1] (read-out: MIC, VanA E. faecium), 4 µg/mL (≈ 2.45 µM); in assay [2] (setting [12]), 2 µg/mL (≈ 1.22 µM); in assay [4], 0.13 µg/mL (≈ 0.0795 µM); in assay [5] it was 0.03 µg/mL (≈ 0.0183 µM).
With `CN[C@H](CC(C)C)C(=O)N[C@H]1C(=O)N[C@@H](CC(N)=O)C(=O)N[C@H]2C(=S)NC3C(=O)N[C@H](C(=O)N[C@H](CO)c4cc(O)cc(O)c4-c4cc3ccc4O)[C@H](O)c3ccc(c(Cl)c3)Oc3cc2cc(c3OC2OC(CO)C(O)[C@H](O)[C@@H]2O[C@H]2CC(C)(NCc3ccc(-c4ccc(Cl)cc4)cc3)[C@H](O)[C@H](C)O2)Oc2ccc(cc2Cl)[C@H]1O` (stereo partly shown) [Compound 27], the MIC in assay [3] was determined as 4 µg/mL (≈ 2.42 µM); in assay [1] (read-out: MIC, VanA E. faecium), 4 µg/mL (≈ 2.42 µM); in assay [2] (setting [12]), 8 µg/mL (≈ 4.84 µM); in assay [4], 4 µg/mL (≈ 2.42 µM); in assay [5], 8 µg/mL (≈ 4.84 µM).
As for `CN[C@H](CC(C)C)C(=O)N[C@H]1C(=O)N[C@@H](CC(N)=O)C(=O)N[C@H]2C(=N)NC3C(=O)N[C@H](C(=O)N[C@H](CO)c4cc(O)cc(O)c4-c4cc3ccc4O)[C@H](O)c3ccc(c(Cl)c3)Oc3cc2cc(c3OC2OC(CO)C(O)[C@H](O)[C@@H]2O[C@H]2CC(C)(NCc3ccc(-c4ccc(Cl)cc4)cc3)[C@H](O)[C@H](C)O2)Oc2ccc(cc2Cl)[C@H]1O` (stereo partly shown) [Compound 28], the MIC stood at 0.13 µg/mL (≈ 0.0795 µM) in assay [3]; 0.02 µg/mL (≈ 0.0122 µM) in assay [1] (read-out: MIC, VanA E. faecium); 0.02 µg/mL (≈ 0.0122 µM) in assay [2] (setting [12]); 0.06 µg/mL (≈ 0.0367 µM) in assay [4]; 0.13 µg/mL (≈ 0.0795 µM) in assay [5].
“CBP-[Ψ[CH2NH]Tpg^4]vancomycin [Compound 17]”: in the assay with VanA VRE (relative to the analogue without CBP group), the “improvement in activity against VanA VRE on introduction of the (4-chlorobiphenyl)methyl group” value is 100 fold. For the same compound, the “MIC against VanA VRE” value against VanA VRE (stated for VanA VRE) fell in the range of 0.06 to 0.13 µg/mL. For the same compound, the “MIC, VanA E. faecium” value in assay [1] (ATCC BAA-2317) worked out at 0.06 µg/mL. Also, the “MIC, Van A E. faecium, serum concentration 10%” value in assay [1] (ATCC BAA-2317, 10%) was found to be 0.06 µg/mL. Moreover, the “MIC, Van A E. faecium, serum concentration 25%” value in assay [1] (ATCC BAA-2317, 25%) is 0.13 µg/mL. Moreover, the “MIC, Van A E. faecium, serum concentration 100%” value in assay [1] (ATCC BAA-2317, 100%) is 0.5 µg/mL. Also, the “MIC, VanA E. faecalis” value in assay [2] (BM 4166) came out at 0.13 µg/mL. In addition, the “MIC, Van A E. faecalis, serum concentration 10%” value in assay [2] (BM 4166, 10%) amounted to 0.13 µg/mL. In assay [2] (BM 4166, 25%), the “MIC, Van A E. faecalis, serum concentration 25%” value came out at 0.26 µg/mL. For the same compound, in assay [2] (BM 4166, 100%), the “MIC, Van A E. faecalis, serum concentration 100%” value is 0.5 µg/mL. Besides, the “MIC, VanB E. faecalis” value in assay [4] (ATCC 51299) was found to be 0.5 µg/mL. Moreover, in assay [4] (ATCC 51299, 10%), the “MIC, Van B E. faecalis, serum concentration 10%” value worked out at 0.5 µg/mL. Further, the “MIC, Van B E. faecalis, serum concentration 25%” value in assay [4] (ATCC 51299, 25%) amounted to 1 µg/mL. The “MIC, Van B E. faecalis, serum concentration 100%” value in assay [4] (ATCC 51299, 100%) came out at 2 µg/mL. Further, the “MIC, MRSA S. aureus” value in assay [5] (ATCC 43300) came out at 0.25 µg/mL. Further, the “MIC, MRSA S. aureus, serum concentration 10%” value in assay [5] (ATCC 43300, 10%) came to 0.25 µg/mL. Besides, the “MIC, MRSA S. aureus, serum concentration 25%” value in assay [5] (ATCC 43300, 25%) came to 0.5 µg/mL. For the same compound, the “MIC, MRSA S. aureus, serum concentration 100%” value in assay [5] (ATCC 43300, 100%) is 1 µg/mL.
